Six molecules from patent US7355063B2, “Shogaol compound and tyrosinase activity inhibitor comprising the compound” (Toagosei Co., Ltd., priority 2003, dated 2008) can be followed below.

The subject of test [1] is mushroom tyrosinase. As to the kind of experiment: Tyrosinase activity inhibition test using L-dopa as substrate (Test Examples 3 to 6, microplate reader, 490 nm). The class given is biochemical. Here is the method: Using the compound 37 obtained in Example 21, the compound 38 obtained in Example 22, the compound 39 obtained in Example 23, and arbutin (manufactured by Tokyo Kasei Kogyo Co., Ltd.) as a comparative control, a tyrosinase activity inhibition test was carried out using L-dopa as a substrate.
The specific test procedures are as follows. • (1) 72 μl of a phosphate buffer prepared by dissolving 1.000 g of sodium dihydrogen phosphate and 1.186 g of disodium hydrogen phosphate in 500 ml of distilled water, 80 μl of a substrate solution prepared by dissolving 32.7 mg of L-DOPA in 200 ml of distilled water, and 8 μl of a test solution prepared by dissolving the test compound in dimethyl sulfoxide were mixed together. • (2) 80 μl of an enzyme solution prepared by dissolving 3.0 mg (2400 units; manufactured by Sigma Corporation) of mushroom tyrosinase in 7.0 ml of distilled water and diluting the solution with the above phosphate buffer so as to make it five times in amount was added to the solution prepared in (1), and the whole was stirred for 15 seconds. The resulting solution was maintained at 25° C., and the absorbance at 490 nm was measured by a microplate reader one minute and 45 seconds later and 2 minutes and 45 seconds later. • (3) The test operations in the above (1) and (2) were conducted four times for the individual test compounds and blank test (only dimethyl sulfoxide), and the resulting numeric value was inserted in the following calculation formula and a mean value thereof was regarded as a tyrosinase activity inhibition ratio (%). Tyrosinase activity inhibition ratio (%)=[(T^1−T^2)/T^1]×100 • T^1=difference in absorbance of solution with addition of no test compound between 2 minutes and 45 seconds later and one minute and 45 seconds later • T^2=difference in absorbance of solution with addition of test compound was added between 2 minutes and 45 seconds later and one minute and 45 seconds later
Using the compound 42 obtained in Example 26, the compound 45 obtained in Example 29, the compound 46 obtained in Example 30, and arbutin (manufactured by Tokyo Kasei Kogyo Co., Ltd.) as a comparative control, a tyrosinase activity inhibition test was carried out using L-dopa as a substrate. The test procedure was in accordance with Test Example 3.
Using the compound 34 obtained in Example 18, the compound 47 obtained in Example 31, and arbutin (manufactured by Tokyo Kasei Kogyo Co., Ltd.) as a comparative control, a tyrosinase activity inhibition test was carried out using L-dopa as a substrate. The test procedure was in accordance with Test Example 3.
Using the compound 48 obtained in Example 32 and arbutin (manufactured by Tokyo Kasei Kogyo Co., Ltd.) as a comparative control, a tyrosinase activity inhibition test was carried out using L-dopa as a substrate. The test procedure was in accordance with Test Example 3.

A short description of test [2]: Test of scavenging DPPH radical (Test Example 9, microplate reader, 540 nm). The conditions noted are these: final concentration of 25 μg/mL; 20 minutes, room temperature. The source says: Using the compound 36 obtained in Example 20, the compound 37 obtained in Example 21, the compound 38 obtained in Example 22, the compound 39 obtained in Example 23, the compound 40 obtained in Example 24, the compound 42 obtained in Example 26, the compound 45 obtained in Example 29, the compound 46 obtained in Example 30, the compound 48 obtained in Example 32 and, as a comparative control, dl-α-tocopherol (manufactured by Tokyo Kasei Kogyo Co., Ltd.), a test of scavenging DDPH (1,1-diphenyl-2-picrylhydrazyl) radical, a stable radical, was carried out.
100 μl of 800 μM DPPH ethanol solution was added to 80 μl of 100 mM Tris-HCl buffer (pH 7.4) and 20 μl of an ethanol solution of the compound 36 (final concentration of 25 μg/mL), followed by sufficient stirring. After the resulting mixture was allowed to stand in a dark place at room temperature for 20 minutes, the absorbance at 540 nm was measured on a microplate reader (absorbance of the test solution).
The compounds 37, 38, 39, 40, 42, 45, 46, and 48 of the invention as well as dl-α-tocopherol as a known radical scavenger were similarly tested.
As a control, using 80 μl of 100 mM Tris-HCl buffer (pH 7.4), 20 μl of ethanol, and 100 μl of 800 μM DPPH ethanol solution, the same operation was carried out as described above and the absorbance was measured (absorbance of the control solution).
With the individual compounds, the same measurement was repeated four times, and the mean value was inserted in the following formula to calculate a DPPH radical-scavenging ratio. DPPH radical-scavenging ratio (%)=[1−(absorbance of sample solution/absorbance of control solution)]×100
In general terms: DPPH is a stable violet radical that fades when it is reduced.

Test [3] deals with T1, hyaluronic acid-degrading enzyme (derived from bovine testicles, Type IV-S) (Bos taurus, UniProt Q2YDK3).
T1 construct: derived from bovine testicles manufactured by Sigma Corporation, Type IV-S; purchased Sigma Corporation Type IV-S; host or cells: bovine testicles
T1 sequence (Q2YDK3 36-553): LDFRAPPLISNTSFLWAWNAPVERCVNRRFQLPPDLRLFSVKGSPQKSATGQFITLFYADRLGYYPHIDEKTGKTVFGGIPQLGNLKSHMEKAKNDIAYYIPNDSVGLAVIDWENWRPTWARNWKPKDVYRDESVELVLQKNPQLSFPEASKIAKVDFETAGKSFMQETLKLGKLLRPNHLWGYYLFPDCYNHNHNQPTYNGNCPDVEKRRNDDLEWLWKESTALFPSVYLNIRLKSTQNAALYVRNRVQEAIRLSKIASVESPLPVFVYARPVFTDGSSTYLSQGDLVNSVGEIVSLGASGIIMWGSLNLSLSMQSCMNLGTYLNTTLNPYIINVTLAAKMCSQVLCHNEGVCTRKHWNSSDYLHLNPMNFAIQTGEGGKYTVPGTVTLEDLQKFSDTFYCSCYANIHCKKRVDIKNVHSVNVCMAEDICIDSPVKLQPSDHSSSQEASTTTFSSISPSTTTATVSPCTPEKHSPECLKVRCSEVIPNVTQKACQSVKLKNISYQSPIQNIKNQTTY
As to the kind of experiment: Hyaluronic acid-degrading enzyme activity inhibition test. The class given is biochemical. The method, then: Using the compound 7 obtained in Example 2, the compound 34, and magnesium ascorbate phosphate as a comparative control, a hyaluronic acid-degrading enzyme activity inhibition test was carried out.
First, the following solutions shown in A to H were each prepared. • A: 0.1M acetate buffer solution was prepared by dissolving 0.60 g of acetic acid in 100 ml of distilled water. • B: A hyaluronidase solution was prepared by dissolving 7.2 mg of a hyaluronic acid-degrading enzyme (derived from bovine testicles manufactured by Sigma Corporation, Type IV-S) into 3.0 ml of the acetate buffer (prepared in the above A). • C: An activator solution was prepared by dissolving 1.0 mg of compound 48/80 (a hyaluronidase activator manufactured by Sigma Corporation) into 10.0 ml of the acetate buffer (prepared in the above A). • D: A hyaluronic acid solution was prepared by dissolving 12.0 mg of potassium hyaluronate (manufactured by Wako Pure Chemical Industries, Ltd.) into 15.0 ml of the acetate buffer (prepared in the above A). • E: A 0.4N sodium hydroxide aqueous solution was prepared by dissolving 1.60 g of sodium hydroxide into 100 ml of distilled water. • F: After 4.95 g of boric acid was dissolved into 50 ml of distilled water, a 1N sodium hydroxide aqueous solution was added until pH reached 9.1. Subsequently, the whole amount was made 100 ml by adding distilled water. • G: 1.0 g of p-dimethylaminobenzaldehyde, 1.25 ml of 10N hydrochloric acid, and 8.75 ml of acetic acid were mixed. The solution was used after the whole amount was made 100 ml by adding acetic acid immediately before use. • H: Each test compound was dissolved in the acetate buffer (prepared in the above A) so the final test concentration became 0.5 mg/ml and 1.0 mg/ml.
Next, the experimental operation was carried out with the procedures shown in the following (1) to (8).
(1) 0.2 ml of the test compound solution (prepared in the above H) and 0.1 ml of the hyaluronic acid-degrading enzyme solution (prepared in the B) were mixed and the whole was incubated at 37° C. for 20 minutes.
(2) To the above reaction solution was added 0.2 ml of the activator solution (prepared in the above C) and the whole was incubated at 37° C. for 20 minutes.
(3) To the above reaction solution was added 0.5 ml of the hyaluronic acid solution (prepared in the above D), and the whole was incubated at 37° C. for 40 minutes.
(4) To the above reaction solution was added 0.2 ml of the 0.4N sodium hydroxide aqueous solution (prepared in the above E), and the whole was cooled in an ice bath.
(5) To the above reaction solution was added 0.2 ml of the boric acid solution (prepared in the above F), and the whole was heated at 100° C. for 3 minutes.
(6) The above reaction solution was cooled in an ice bath.
(7) To the above reaction solution was added 3.0 ml of the p-dimethylaminobenzaldehyde solution (prepared in the above G), and the whole was incubated at 37° C. for 20 minutes.
(8) Absorbance of the reaction solution at 585 nm was measured using a spectrophotometer.
The above experimental operations were repeated three times, and the resulting numeric value was inserted in the following calculation formula and a mean value thereof was regarded as a hyaluronic acid-degrading enzyme activity inhibition ratio (%). Hyaluronic acid-degrading enzyme activity inhibition ratio (%)=(A−B)/A×100
A=absorbance obtained at the time when operation was carried out with addition of no test compound
B=absorbance obtained at the time when operation was carried out with addition of test compound
The compounds of the invention and magnesium ascorbate phosphate were each used in an enzymatic reaction solution in amounts of 0.1 mg/ml, 0.2 mg/ml, and 0.4 mg/ml, and the results were shown in Table 7 (since the compound 7 was not dissolved in a concentration of 0.4 mg/ml, the test was not carried out).

Test [4] relates to mushroom tyrosinase. As to the kind of experiment: Tyrosinase activity inhibition test using L-dopa as substrate (Test Examples 1 and 2, absorbance at 475 nm). The class given is biochemical. The method, then: Using the compound 7 obtained in Example 2, the compound 13 obtained in Example 5, a mixture of the compound 18 and the compound 19 (existing molar ratio 45:55) obtained in Example 7, and arbutin (manufactured by Tokyo Kasei Kogyo Co., Ltd.) as a comparative control, a tyrosinase activity inhibition test was carried out using L-dopa as a substrate.
The specific test procedures are as follows. • (1) 1.80 ml of a phosphate buffer prepared by dissolving 1.000 g of sodium dihydrogen phosphate and 1.186 g of disodium hydrogen phosphate in 500 ml of distilled water, 1.00 ml of a substrate solution prepared by dissolving 32.7 mg of L-DOPA in 200 ml of distilled water, and 0.10 ml of a test solution prepared by dissolving the test compound in dimethyl sulfoxide were mixed together. • (2) 0.10 ml of an enzyme solution prepared by dissolving 3.0 mg (2400 units; manufactured by Sigma Corporation) of mushroom tyrosinase in 7.0 ml of distilled water was added to the solution prepared in (1), and the whole was stirred for 15 seconds. The resulting solution was maintained at 25° C., and the absorbance at 475 nm was measured one minute and 45 seconds later and 2 minutes and 45 seconds later. • (3) The test operations in the above (1) and (2) were conducted three times for the individual test compounds and blank test (only dimethyl sulfoxide), and the resulting numeric value was inserted in the following calculation formula and a mean value thereof was regarded as a tyrosinase activity inhibition ratio (%). Tyrosinase activity inhibition ratio (%)=[(T^1−T^2)/T^1]×100 • T^1=difference in absorbance of solution with addition of no test compound between 2 minutes and 45 seconds later and one minute and 45 seconds later • T^2=difference in absorbance of solution with addition of test compound was added between 2 minutes and 45 seconds later and one minute and 45 seconds later
Using the compound 40 obtained in Example 24 and arbutin (manufactured by Tokyo Kasei Kogyo Co., Ltd.) as a comparative control, a tyrosinase activity inhibition test was carried out using L-dopa as a substrate. The test procedure was in accordance with Test Example 1.

The mark [5] stands for this setting: 0.25 mg/mL, Table 6, 0.50 mg/mL.

For the molecule `COc1cc(CCC(O)CC(CCCCCCO)OC)ccc1O` (stereo not drawn) [Compound 48], the “Tyrosinase activity inhibition ratio (%)” value in test [1] (setting [5]) is recorded as 38.2%; in test [1] (0.5 mg/mL, Table 6, 0.50 mg/mL) it was 47.1%. In addition, the “DPPH radical-scavenging ratio (%)” value in test [2] is reported as 33.5%.

As for `COc1cc(CCC(O)/C=C/CCCCCCC(=O)O)ccc1O` (stereo not drawn) [Compound 37], the “Tyrosinase activity inhibition ratio (%)” value came to 48.6% in test [1] (0.5 mg/mL, Table 3) and 67.7% in test [1] (1 mg/mL, Table 3). Moreover, the “DPPH radical-scavenging ratio (%)” value in test [2] was 37.6%.

With “magnesium ascorbate phosphate [reference compound]”, the “Hyaluronic acid-degrading enzyme activity inhibition ratio (%)” value in test [3] (0.1 mg/mL) turned out to be 3.3%; in test [3] (0.2 mg/mL), 4.2%; in test [3] (0.4 mg/mL) it was 7.6%.

Take `COc1cc(CCC(=O)CC(O)CCCCCCC(=O)O)ccc1O` (stereo not drawn) [Compound 34]: in test [1] (1.00 mg/ml, Table 5), the “Tyrosinase activity inhibition ratio (%)” value is recorded as 60.1%. In addition, the entries for the “Hyaluronic acid-degrading enzyme activity inhibition ratio (%)” value in test [3] (0.1 mg/mL), in test [3] (0.2 mg/mL) and in test [3] (0.4 mg/mL) were 12.1%, 31.6% and 81.3%, respectively.

On to `OC[C@H]1O[C@@H](Oc2ccc(O)cc2)[C@H](O)[C@@H](O)[C@@H]1O` [Arbutin, arbutin, reference compound], for which the “Tyrosinase activity inhibition ratio (%)” value in test [4] (0.125 mg/mL, Table 2) worked out at 23.1%; in test [4] (0.25 mg/mL, Table 2), 28.5%; in test [4] (0.5 mg/mL in enzymatic reaction solution, Table 1), 36.2%; in test [4] (0.5 mg/mL, Table 2) it was 34.6%; in test [4] (1 mg/mL in enzymatic reaction solution, Table 1), 42.2%; in test [1] (0.031 mg/mL, Table 4) it was 10.7%. For the same molecule, the “Tyrosinase activity inhibition ratio (%)” value in test [1] (0.063 mg/mL, Table 4) is reported as 17.7%; in test [1] (0.125 mg/mL, Table 4), 24.7%; in test [1] (setting [5]), 35.8%; in test [1] (0.5 mg/mL, Table 3), 35.0%; in test [1] (0.5 mg/mL, Table 6, 0.50 mg/mL), 42.6%; in test [1] (1 mg/mL, Table 3), 41.6%. Further, in test [1] (1.00 mg/ml, Table 5), the “Tyrosinase activity inhibition ratio (%)” value amounted to 45.6%.

For `COC(=O)CCCCCCC(CC(=O)CCc1ccc(O)c(OC)c1)OC` (stereo not drawn) [Compound 36], in test [2], the “DPPH radical-scavenging ratio (%)” value is on record as 31.7%.
